One test concerns GCGR. As to conditions: antagonist to glucagon; no reference given; cited from earlier work.
Test [1] relates to GCGR mutants of Trp295 and Asn298. As to the kind of experiment: Whole-cell glucagon binding assay, ECL2 mutants Trp295 and Asn298. The arrangement: species or system human. As to conditions: CHO-K1 cells, 40 pM 125I-glucagon, room temperature, 3 h.

Consider two molecules from PMC3820480 (Nature, 2013).

For `CS(=O)(=O)c1cccc(NC(=O)N(Cc2ccc(C(=O)Nc3nn[nH]n3)cc2)c2ccc(C3CCCCC3)cc2)c1` [NNC0640], the mode of antagonism result in the test on GCGR is recorded as “competitive antagonist to glucagon”. Regarding “glucagon: 29 amino acid hormonal peptide, glucagon (Supplementary Fig. 1a)”, the “effect of mutation of ECL2 residues on ligand binding” value in test [1] is listed as “strongly affects ligand binding”.
